In patent publication US8232298B2, “Inhibitors of the interaction between MDM2 and P53” (Janssen Pharmaceutica N.V., priority 2006, dated 2012):
Read-outs that look alike come from different tables or passages of the source.

What was measured:
U87MG cells = assay: Proliferation assay (MTT) on U87MG tumour cells; assay type: cell-based; details: Homo sapiens, U-87 MG
Procedure: Cellular activity of the compounds of formula (I) was determined on U87MG tumour cells using a colorimetric assay for cell toxicity or survival (see example C.2).
U87MG cells are human glioblastoma cells with wild type p53. In this cell line MDM2 tightly controls p53 expression.
All compounds tested were dissolved in DMSO and further dilutions were made in culture medium. Final DMSO concentrations never exceeded 0.1% (v/v) in cell proliferation assays. Controls contained U87MG cells and DMSO without compound and blanks contained DMSO but no cells.
U87MG cells were seeded in 96-well cell culture plates at 3000 cells/well/100 μl. 24 hours later, medium was changed and compound and/or solvent were added to a final volume of 200 μl. Following 4 days of incubation, medium was replaced by 200 μl fresh medium and cell growth was assessed using a MTT-based assay. Therefore, 25 μl of the MTT solution (0.5% MTT research grade from Serva in phosphate-buffered saline ) was added to each well and the cells were further incubated for 2 hours at 37° C. The medium was then carefully aspirated and the blue MTT-formazan product was dissolved by adding to each well 25 μl 0.1M glycin and 100 μl DMSO. The plates were shaken for another 10 min on a micro plate shaker before reading absorbance at 540 nm by a Biorad micro plate reader.
Within an experiment, the results for each experimental condition are the mean of 3 replicate wells. For initial screening purposes, compounds were tested at a single fixed concentration of 10^−5 M. For active compounds, the experiments were repeated to establish full concentration-response curves. For each experiment, controls (containing no drug) and a blank incubation (containing no cells or drugs) were run in parallel. The blank value was subtracted from all control and sample values. For each sample, the mean value for cell growth (in absorbance units) was expressed as a percentage of the mean value for cell growth of the control. When appropriate, IC50-values (concentration of the drug, needed to reduce cell growth to 50% of the control) were computed using probit analysis for graded data (Finney, D. J., Probit Analyses, 2nd Ed. Chapter 10, Graded Responses, Cambridge University Press, Cambridge 1962). Herein the effects of test compounds are expressed as pIC50 (the negative log value of the IC50-value) (see table F-2).
In some of the experiments the proliferation assay was adapted for and used in 384-well culture plates (see table F-2).

p53 in A2780 cells = assay: p53 ELISA: capacity to preserve p53 in A2780 cells; assay type: cell-based; details: treated with compound for 16 hours, in M
Procedure: The capacity of the compounds to preserve p53 in A2780 cells was measured with the p53 enzyme linked immunosorbent assay. The p53 assay is a “sandwich” enzyme immunoassay employing two polyclonal antibodies. A polyclonal antibody, specific for the p53 protein, has been immobilized onto the surface of the plastic wells. Any p53 present in the sample to be assayed will bind to the capture antibody. The biotinylated detector polyclonal antibody also recognizes p53 protein, and will bind to any p53, which has been retained by the capture antibody. The detector antibody, in turn, is bond by horseradish peroxidase-conjugated streptavidin. The horseradish peroxidase catalyses the conversion of the chromogenic substrate o-phenylene diamine, the intensity of which is proportional to the amount of p53 protein bond to the plate. The colored reaction product is quantified using a spectrophotometer. Quantitation is achieved by the construction of a standard curve using known concentrations of purified recombinant HIS tagged p53 protein (see example C.1.).
A2780 cells (ATCC) were cultivated in RPMI 1640 supplemented with 10% fetal calf serum (FCS), 2 mM L-glutamine and gentamycin at 37° C. in a humidified incubator with 5% CO2.
A2780 cells were seeded at 20.000 cells per well in a 96 well plate, cultured for 24 hours and treated with compound for 16 hours at 37° C. in a humidified incubator. After incubation, the cells were washed once with phosphate-buffered saline and 30 μl, per well, low salt RIPA buffer (20 mM tris, pH7.0, 0.5 mM EDTA, 1% Nonidet P40, 0.5% DOC, 0.05% SDS, 1 mM PMSF, 1 μg/ml aprotinin and 0.5 μ/ml leupeptin) was added. Plates were placed on ice for 30 minutes to complete the lysis. p53 protein was detected in de lysates by using the sandwich ELISA, described below.
High binding polystyrene EIA/RIA 96 well plates (Costar 9018) were coated with the capture antibody pAb1801 (Abeam ab28-100) at a concentration of 1 μg/ml in coating buffer (0.1 M NaHCO3 pH8.2), 50 μl per well. The antibody was allowed to adhere overnight at 4° C. Coated plates were washed once with phosphate-buffered saline (PBS)/0.05% Tween 20 and 300 μl of blocking buffer (PBS, 1% bovine serum albumins (BSA)) was added, for an incubation period of 2 hours at room temperature. Dilutions of purified recombinant HIS tagged p53 protein, ranging from 3-200 ng/ml, were made in blocking buffer and used as standards.
Plates were washed twice with PBS/0.05% Tween 20 and blocking buffer or standards were added at 80 μl/well. To the standards, 20 μl of lysis buffer was added. The samples were added to the other wells at 20 μl lysate/well. After an overnight incubation at 4° C., plates were washed twice with PBS/0.05% Tween 20. Aliquots of 100 μl secondary polyclonal antibody p53(FL-393) (Tebubio, sc-6243) at a concentration of 1 μg/ml in blocking buffer were added to each well and allowed to adhere for 2 hours at room temperature. Plates were washed three times with PBS /0.05% Tween 20. Detection antibody anti-rabbit HRP (sc-2004, Tebubio) at 0.04 μg/ml in PBS/1% BSA was added and incubated for 1 hour at room temperature. Plates were washed three times with PBS/0.05% Tween 20 and 100 μl of substrate buffer was added (substrate buffer was prepared shortly before use by adding 1 tablet of 10 mg o-phenylene diamine (OPD) from Sigma and 125 μl 3% H2O2 to 25 ml OPD buffer: 35 mM citric acid, 66 mM Na2HPO4, pH5.6). After 5 to 10 minutes, colour reaction was stopped by adding 50 μl stop buffer (1 M H2SO4) per well. The absorbance at dual wavelengths of 490/655 nm was measured using a Biorad micro plate reader and the results were then analyzed.
For each experiment, controls (containing no drug) and a blank incubation (containing no cells or drugs) were run in parallel. The blank value was subtracted from all control and sample values. For each sample, the value of p53 (in absorbance units) was expressed as the percentage of the value for p53 present in the control. […]

[1] = 96 h, 96-well plates, 4 days of incubation, read-out: cell proliferation pIC50 96 well (converted)
[2] = 384-well culture plates, read-out: cell proliferation pIC50 384 well (converted)

Row | SMILES | melting point | IC50 (U87MG cells; [1]) | A2780 p53-elisa LAD (lowest dose giving at least 140% of the value for p53 present in the control) (p53 in A2780 cells) | IC50 (U87MG cells; [2])
1 | c1cc(Nc2ccc(NCCc3cnc4n3CCCC4)cc2)ccn1 [Compound 3] | 256 °C | 7.08 µM | 3.0E−06 | 
2 | c1cnc2[nH]cc(CCNc3ccc(Nc4ccncc4)cc3)c2c1 [Compound 2] | 182 °C | 4.37 µM | 3.0E−06 | 
3 | COc1ccc2c(CCNc3ccc(Nc4ccncc4)cc3)coc2c1 [Compound 5] | 184 to 186 °C | 4.47 µM | 1.0E−05 | 
4 | c1cc(Nc2ccc(Nc3ccc4[nH]ccc4c3)cc2)ccn1 [Compound 4] |  |  | 1.0E−06 | 1.41 µM
5 | c1cc(Nc2ccc(NCCc3c[nH]c4sccc34)cc2)ccn1 [Compound 6] |  |  | 1.0E−05 | > 10 µM
6 | c1ccc2c(CCNc3ccc(Nc4ccncc4)cc3)coc2c1 [Compound 1] | 152 to 154 °C | 3.24 µM | 1.0E−05 | 
